The DC50 is the concentration at which degradation of the target reaches its halfway point. Broadly, the Emax is the size of the effect at its maximum, as opposed to the concentration needed.

Eight molecules from patent US12661410B2, “Compounds for targeted degradation of RET” (C4 Therapeutics, Inc., priority 2020, dated 2026) can be followed below.

One experiment deals with T1, RET (658-1114) (Homo sapiens, UniProt P07949).
T1 construct: 658-1114; expressed in transfected cells; host or cells: 293T.144 (293T cells, generated in-house)
T1 sequence (P07949 658-1114): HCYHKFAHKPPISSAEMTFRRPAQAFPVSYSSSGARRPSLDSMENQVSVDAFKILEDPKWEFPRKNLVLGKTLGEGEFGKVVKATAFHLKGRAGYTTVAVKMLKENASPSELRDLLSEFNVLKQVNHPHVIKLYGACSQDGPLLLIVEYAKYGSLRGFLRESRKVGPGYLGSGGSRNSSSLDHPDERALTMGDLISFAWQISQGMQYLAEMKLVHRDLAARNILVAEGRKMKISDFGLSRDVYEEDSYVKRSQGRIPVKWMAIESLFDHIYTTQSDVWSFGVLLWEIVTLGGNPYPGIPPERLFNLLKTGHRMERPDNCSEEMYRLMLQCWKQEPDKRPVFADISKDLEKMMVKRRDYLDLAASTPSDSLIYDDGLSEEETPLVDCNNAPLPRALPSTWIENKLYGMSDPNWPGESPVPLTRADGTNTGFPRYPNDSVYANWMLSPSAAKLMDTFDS
As to the kind of experiment: HiBiT-Degradation, RET wild-type degradation assay (Nano-Glo HiBiT Lytic), 293T.144 cells. The experiment is classed as cell-based. The conditions noted are these: HiBiT-Degradation; for DC50 / Emax: 6.0 hours; for DC50: read-out: 293T.144 RET (658-1114) 6.0 hours (DC50); for Emax: read-out: 293T.144 RET (658-1114) 6.0 hours (Emax). The gist of the method:
(§1)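 Cells were plated and dosed with an 11-point half-log series (highest 10 μM) in duplicate. After 6 hours they were lysed with HiBiT lytic detection reagent and luminescence measured. DC50 and percent remaining protein (Emax) came from the dose-response curves.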

The next experiment has as its target T2, RET(KD: 658-1114 G810R) (Homo sapiens, UniProt P07949, G810R).
T2 construct: 658-1114; expressed in transfected cells; host or cells: 293T.165 (293T cells, generated in-house)
T2 sequence (P07949 658-1114 G810R): T1 sequence (P07949 658-1114) with G153R
Kind of experiment: HiBiT-Degradation, RET G810R degradation assay (Nano-Glo HiBiT Lytic), 293T.165 cells. The experiment is classed as cell-based. The conditions noted are these: for Emax / DC50: 6.0 hours; for Emax: % remaining protein, read-out: 293T.165 RET(KD: 658-1114 G810R) 6.0 hours (Emax); for DC50: read-out: 293T.165 RET(KD: 658-1114 G810R) 6.0 hours (DC50). In short, it runs like this: as §1
On the technique in general: HiBiT is a short tag that completes a luciferase, so light tracks the accessible tagged protein.

[1] abbreviates: half-maximal degradation concentration.

Each structure is given as a SMILES string. Numbering of substitutions follows the chain as printed. Like-named read-outs stand apart in the source and are kept apart here. Bounds are passed on as bounds.

`C[C@H](c1ccccn1)N1CCN(c2ccc(-c3nc(-c4cnn(C5CCN(C(=O)CC6(O)CCN(c7ccc(NC8CCC(=O)NC8=O)cc7F)CC6)CC5)c4)cn4ncc(C#N)c34)cn2)CC1` (stereo partly drawn) [Compound 1, 6-[1-[1-[2-[1-[4-[(2,6-dioxo-3-piperidyl)amino]-2-fluoro-phenyl]-4-hydroxy-4-piperidyl]acetyl]-4-piperidyl]pyrazol-4-yl]-4-[6-[4-[(1R)-1-(2-pyridyl)ethyl]piperazin-1-yl]-3-pyridyl]pyrazolo[1,5-a]pyrazine-3-carbonitrile]: on RET (658-1114), the “293T.144 RET (658-1114) 6.0 hours (IP) [nM]” value (from here on “293T.144 RET”) was “++++ (< 50 nM = ++++)”, the DC50 is below 50 nM and the Emax is below 30%. At RET(KD: 658-1114 G810R), the Emax was below 50%. For the same molecule, the DC50 at RET(KD: 658-1114 G810R) (setting [1]) was below 50 nM. For the same molecule, on RET(KD: 658-1114 G810R) (HiBiT-Degradation), the “293T.165 RET(KD: 658-1114 G810R) 6.0 hours (Emax)” value was “+++ (<50% = +++)”, the “293T.165 RET(KD: 658-1114 G810R) 6.0 hours (IP) [nM]” value was “++++ (< 50 nM = ++++)” and the DC50 is below 50 nM.
On to `CC(C)NC(=O)C1(C)CCN(c2ccc(-c3cc(-c4cnn(C5CCN(C(=O)CN6CCC(c7ccc(NC8CCC(=O)NC8=O)cc7F)CC6)CC5)c4)cn4ncc(C#N)c34)cn2)CC1` (stereo not shown) [Compound 2, 1-(5-(3-Cyano-6-(1-(1-(2-(4-(4-((2,6-dioxopiperidin-3-yl)amino)-2-fluorophenyl)piperidin-1-yl)acetyl)piperidin-4-yl)-1H-pyrazol-4-yl)pyrazolo[1,5-a]pyridin-4-yl)pyridin-2-yl)-N-isopropyl-4-methylpiperidine-4-carboxamide], for which, at RET (658-1114), the “293T.144 RET” value is “++++ (< 50 nM = ++++)”, the DC50 is below 50 nM and the Emax is below 30%. In addition, the Emax at RET(KD: 658-1114 G810R) was below 50%. For the same molecule, on RET(KD: 658-1114 G810R) (setting [1]), the DC50 is below 50 nM. In addition, on RET(KD: 658-1114 G810R) (HiBiT-Degradation), the “293T.165 RET(KD: 658-1114 G810R) 6.0 hours (Emax)” value is “+++ (<50% = +++)”, the “293T.165 RET(KD: 658-1114 G810R) 6.0 hours (IP) [nM]” value is on record as “++++ (< 50 nM = ++++)” and the DC50 was below 50 nM.
As for `CCC1(C(=O)NC(C)C)CCN(c2ccc(-c3cc(-c4cnn(C5CCN(C(=O)CN6CCC(c7ccc(NC8CCC(=O)NC8=O)cc7F)CC6)CC5)c4)cn4ncc(C#N)c34)cn2)CC1` (stereo not shown) [Compound 3, 1-(5-(3-Cyano-6-(1-(1-(2-(4-(4-((2,6-dioxopiperidin-3-yl)amino)-2-fluorophenyl)piperidin-1-yl)acetyl)piperidin-4-yl)-1H-pyrazol-4-yl)pyrazolo[1,5-a]pyridin-4-yl)pyridin-2-yl)-4-ethyl-N-isopropylpiperidine-4-carboxamide], at RET (658-1114), the “293T.144 RET” value was “++++ (< 50 nM = ++++)”, the DC50 is below 50 nM and the Emax was below 30%. For the same molecule, the Emax at RET(KD: 658-1114 G810R) is below 30%. The DC50 on RET(KD: 658-1114 G810R) (setting [1]) was below 50 nM. On RET(KD: 658-1114 G810R) (HiBiT-Degradation), the “293T.165 RET(KD: 658-1114 G810R) 6.0 hours (Emax)” value was “++++ (< 30% = ++++)”, the “293T.165 RET(KD: 658-1114 G810R) 6.0 hours (IP) [nM]” value is on record as “++++ (< 50 nM = ++++)” and the DC50 was below 50 nM.
`CCC1(C(=O)NC(C)C)CCN(c2ccc(-c3cc(-c4cnn(C5CCN(C(=O)CC6(O)CCN(c7ccc(NC8CCC(=O)NC8=O)cc7F)CC6)CC5)c4)cn4ncc(C#N)c34)cn2)CC1` (stereo not shown) [Compound 4, 1-[5-[3-cyano-6-[1-[1-[2-[1-[4-[(2,6-dioxo-3-piperidyl)amino]-2-fluoro-phenyl]-4-hydroxy-4-piperidyl]acetyl]-4-piperidyl]pyrazol-4-yl]pyrazolo[1,5-a]pyridin-4-yl]-2-pyridyl]-4-ethyl-N-isopropyl-piperidine-4-carboxamide]: on RET (658-1114), the “293T.144 RET” value is on record as “++++ (< 50 nM = ++++)”, the DC50 is below 50 nM and the Emax is below 30%. For the same molecule, the Emax at RET(KD: 658-1114 G810R) is below 30%. In addition, the half-maximal degradation concentration (DC50) on RET(KD: 658-1114 G810R) (setting [1]) is below 50 nM. Further, at RET(KD: 658-1114 G810R) (HiBiT-Degradation), the “293T.165 RET(KD: 658-1114 G810R) 6.0 hours (Emax)” value is “++++ (< 30% = ++++)”, the “293T.165 RET(KD: 658-1114 G810R) 6.0 hours (IP) [nM]” value was “++++ (< 50 nM = ++++)” and the DC50 was below 50 nM.
As to `N#Cc1cnn2cc(-c3cnn(C4CCN(C(=O)CN5CCC(c6ccc(NC7CCC(=O)NC7=O)cc6F)CC5)CC4)c3)cc(-c3ccc(N4CCN(C(=O)Cc5ccc(F)cn5)CC4)nc3)c12` (stereo not shown) [Compound 5, 6-[1-[1-[2-[4-[4-[(2,6-dioxo-3-piperidyl)amino]-2-fluoro-phenyl]-1-piperidyl]acetyl]-4-piperidyl]pyrazol-4-yl]-4-[6-[4-[2-(5-fluoro-2-pyridyl)acetyl]piperazin-1-yl]-3-pyridyl]pyrazolo[1,5-a]pyridine-3-carbonitrile], at RET (658-1114), the “293T.144 RET” value was “++++ (< 50 nM = ++++)”, the DC50 was below 50 nM and the Emax was below 30%. Also, the Emax at RET(KD: 658-1114 G810R) is below 30%. Moreover, the DC50 at RET(KD: 658-1114 G810R) (setting [1]) is below 50 nM. Moreover, at RET(KD: 658-1114 G810R) (HiBiT-Degradation), the “293T.165 RET(KD: 658-1114 G810R) 6.0 hours (Emax)” value is recorded as “++++ (< 30% = ++++)”, the “293T.165 RET(KD: 658-1114 G810R) 6.0 hours (IP) [nM]” value is listed as “++++ (< 50 nM = ++++)” and the DC50 was below 50 nM.
Take `COC1(C(=O)NC(C)C)CCN(c2ccc(-c3cc(-c4cnn(C5CCN(C(=O)CN6CCC(c7ccc(NC8CCC(=O)NC8=O)cc7F)CC6)CC5)c4)cn4ncc(C#N)c34)cn2)CC1` (stereo not shown) [Compound 6, 1-[5-[3-cyano-6-[1-[1-[2-[4-[4-[(2,6-dioxo-3-piperidyl)amino]-2-fluoro-phenyl]-1-piperidyl]acetyl]-4-piperidyl]pyrazol-4-yl]pyrazolo[1,5-a]pyridin-4-yl]-2-pyridyl]-N-isopropyl-4-methoxy-piperidine-4-carboxamide]: on RET (658-1114), the “293T.144 RET” value is on record as “++++ (< 50 nM = ++++)”, the DC50 was below 50 nM and the Emax is below 30%. Also, on RET(KD: 658-1114 G810R), the Emax was below 50%. Moreover, the DC50 on RET(KD: 658-1114 G810R) (setting [1]) was below 50 nM. For the same molecule, on RET(KD: 658-1114 G810R) (HiBiT-Degradation), the “293T.165 RET(KD: 658-1114 G810R) 6.0 hours (Emax)” value was “+++ (<50% = +++)”, the “293T.165 RET(KD: 658-1114 G810R) 6.0 hours (IP) [nM]” value is “++++ (< 50 nM = ++++)” and the 50% degradation concentration (DC50) was below 50 nM.
For the molecule `CCC1(C(=O)NC2CCC2)CCN(c2ccc(-c3cc(-c4cnn(C5CCN(C(=O)CN6CCC(c7ccc(NC8CCC(=O)NC8=O)cc7F)CC6)CC5)c4)cn4ncc(C#N)c34)cn2)CC1` (stereo not shown) [Compound 8, 1-(5-(3-Cyano-6-(1-(1-(2-(4-(4-((2,6-dioxopiperidin-3-yl)amino)-2-fluorophenyl)piperidin-1-yl)acetyl)piperidin-4-yl)-1H-pyrazol-4-yl)pyrazolo[1,5-a]pyridin-4-yl)pyridin-2-yl)-N-cyclobutyl-4-ethylpiperidine-4-carboxamide], at RET (658-1114), the “293T.144 RET” value is “++++ (< 50 nM = ++++)”, the DC50 was below 50 nM and the Emax is below 30%. Besides, the Emax at RET(KD: 658-1114 G810R) was below 30%. Besides, the DC50 on RET(KD: 658-1114 G810R) (setting [1]) was below 50 nM. Besides, at RET(KD: 658-1114 G810R) (HiBiT-Degradation), the “293T.165 RET(KD: 658-1114 G810R) 6.0 hours (Emax)” value is given as “++++ (< 30% = ++++)”, the “293T.165 RET(KD: 658-1114 G810R) 6.0 hours (IP) [nM]” value is on record as “++++ (< 50 nM = ++++)” and the DC50 is below 50 nM.
Turning to `CCC1(C(=O)NC(C)C)CCN(c2ccc(-c3nc(-c4cnn(C5CCN(C(=O)CN6C7CCC6CC(c6ccc(NC8CCC(=O)NC8=O)cc6)C7)CC5)c4)cn4ncc(C#N)c34)cn2)CC1` (stereo not shown) [Compound 9, 1-[5-[3-cyano-6-[1-[1-[2-[3-[4-[(2,6-dioxo-3-piperidyl)amino]phenyl]-8-azabicyclo[3.2.1]octan-8-yl]acetyl]-4-piperidyl]pyrazol-4-yl]pyrazolo[1,5-a]pyrazin-4-yl]-2-pyridyl]-4-ethyl-N-isopropyl-piperidine-4-carboxamide], on RET (658-1114), the “293T.144 RET” value is on record as “++++ (< 50 nM = ++++)”, the DC50 is below 50 nM and the Emax is below 30%. Also, on RET(KD: 658-1114 G810R), the Emax is below 30%. For the same molecule, the DC50 at RET(KD: 658-1114 G810R) (setting [1]) is below 100 nM. Moreover, at RET(KD: 658-1114 G810R) (HiBiT-Degradation), the “293T.165 RET(KD: 658-1114 G810R) 6.0 hours (Emax)” value is listed as “++++ (< 30% = ++++)”, the “293T.165 RET(KD: 658-1114 G810R) 6.0 hours (IP) [nM]” value is on record as “++++ (< 50 nM = ++++)” and the DC50 is below 100 nM.
